Source: US10368545B2, “Substituted 2-thioimidazolylcarboxamides as pesticides” (BAYER CROPSCIENCE AKTIENGESELLSCHAFT, priority 2015, dated 2019)
Like-named read-outs stand apart in the source and are kept apart here.

What was measured:
[1] = log P by HPLC on reversed-phase C18 columns (OECD Guideline 117); format: physicochemical
Procedure: The log P values were determined in accordance with OECD Guideline 117 (EC Directive 92/69/EEC) by HPLC (high-performance liquid chromatography) using reversed-phase (RP) columns (C18), by the following methods:
[a] The LC-MS determination in the acidic range was carried out at pH 2.7 with 0.1% aqueous formic acid and acetonitrile (contains 0.1% formic acid) as mobile phases; linear gradient from 10% acetonitrile to 95% acetonitrile.
[b] LC-MS determination in the neutral range was carried out at pH 7.8 with 0.001 molar aqueous ammonium hydrogencarbonate solution and acetonitrile as mobile phases; linear gradient from 10% acetonitrile to 95% acetonitrile.

[2] = tested on: green peach aphid (Myzus persicae); test: Myzus persicae spray test (Chinese cabbage leaf discs); format: in vivo; conditions: for pest or weed control at 500 g/ha: Myzus persicae, foliar, read-out: efficacy (aphids killed)
Procedure: Myzus persicae—Spray Test
Solvent: 78 parts by weight of acetone • • 1.5 parts by weight of dimethylformamide
(§1) Emulsifier: alkylaryl polyglycol ether
(§2) To produce a suitable active compound preparation, 1 part by weight of active compound is dissolved using the stated parts by weight of solvent and made up with water containing an emulsifier concentration of 1000 ppm until the desired concentration is attained. To produce further test concentrations, the preparation is diluted with emulsifier-containing water.
Discs of Chinese cabbage leaves (Brassica pekinensis) infested by all stages of the green peach aphid (Myzus persicae) are sprayed with an active compound preparation of the desired concentration.
After 5 or 6 days, the efficacy in % is determined. 100% means that all the aphids were killed; 0% means that no aphids were killed.

[3] = tested on: green peach aphid (Myzus persicae); test: Contrasting example: Myzus persicae spray test (MYZUPE); format: in vivo; conditions: for pest or weed control at 100 g/ha: Myzus persicae, 144 h, read-out: % efficacy
Procedure: Myzus persicae—Spray Test (MYZUPE)
Solvents: 78.0 parts by weight of acetone • • 1.5 parts by weight of dimethylformamide
as §1, §2
Discs of Chinese cabbage leaves (Brassica pekinensis), infested by all stages of the green peach aphid (Myzus persicae) are sprayed with an active compound preparation of the desired concentration.
After the desired period of time, the efficacy in % is determined. 100% means that all aphids were killed; 0% means that no aphids were killed.

[4] = application rate 500 g/ha, after 5 or 6 days, Chinese cabbage leaf discs
[5] = reversed-phase C18 HPLC column, pH 2.7, method [a], read-out: logP[a]
[6] = reversed-phase C18 HPLC column, pH 7.8, method [b], read-out: logP[b]

Row | Structure (SMILES) | logP[a] ([1]; method [a]) | logP[b] ([1]; method [b]) | efficacy (aphids killed) [2, 4] [%] | % efficacy ([3]; MYZUPE, 100 g ai/ha, 6 dat) [%] | other results
1 | CCSc1ncc(C(=O)N(C)c2cccnc2)n1C [I-A-36] | 0.95 | 1.31 | 90 | 90 | 
2 | CN(C(=O)c1cnc(SC(F)(F)F)n1C)c1cccnc1 [I-A-37] |  |  |  |  | chromatographic logP [1, 5]: 1.29; chromatographic logP [1, 6]: 1.45; pest or weed control at 500 g/ha [2]: 100%; pest or weed control at 100 g/ha [3]: 100%
3 | CN(C(=O)c1cnc(SC(F)F)n1C)c1cccnc1 [I-A-38] |  |  |  |  | chromatographic logP ([1]; pH 2.7, method [a], read-out: logP[a]): 0.91; chromatographic logP ([1]; pH 7.8, method [b], read-out: logP[b]): 1.17; pest or weed control at 500 g/ha [2]: 90%; pest or weed control at 100 g/ha [3]: 70%
4 | CCS(=O)(=O)c1ncc(C(=O)N(C)c2cccnc2)n1C [I-A-40] | 0.68 | 0.88 | 100 | 90 | 
5 | CSc1ncc(C(=O)N(C)c2cccnc2)n1C [I-A-45] |  |  |  |  | chromatographic logP [1, 5]: 0.54; chromatographic logP [1, 6]: 1.04; pest or weed control at 500 g/ha [2, 4]: 100%; pest or weed control at 100 g/ha ([3]; MYZUPE, 100 g ai/ha, 6 dat): 90%
6 | CN(C(=O)c1cnc(SCC(F)(F)C(F)(F)Cl)n1C)c1cccnc1 [I-A-46] | 2.09 | 2.17 | 100 |  | % efficacy ([3]; MYZUPE, 100 g ai/ha, 5 dat): 90%
7 | CN(C(=O)c1cnc(SCCC(F)(F)F)n1C)c1cccnc1 [I-A-47] | 1.65 | 1.84 | 100 |  | % efficacy ([3]; MYZUPE, 100 g ai/ha, 5 dat): 90%
8 | CN(C(=O)c1cnc(SCCCF)n1C)c1cccnc1 [I-A-48] | 1.11 | 1.40 | 100 |  | % efficacy ([3]; MYZUPE, 100 g ai/ha, 5 dat): 90%
9 | CN(C(=O)c1cnc(SCC(F)(F)C(F)F)n1C)c1cccnc1 [I-A-49] | 1.55 | 1.71 | 100 |  | % efficacy ([3]; MYZUPE, 100 g ai/ha, 5 dat): 90%
10 | CN(C(=O)c1cnc(SCCSCC(F)(F)F)n1C)c1cccnc1 [I-A-50] | 1.94 | 2.10 | 100 |  | % efficacy ([3]; MYZUPE, 100 g ai/ha, 5 dat): 100%
11 | CN(C(=O)c1cnc(SC2CCSCC2)n1C)c1cccnc1 [I-A-51] | 1.47 | 1.73 | 100 |  | % efficacy ([3]; MYZUPE, 100 g ai/ha, 5 dat): 100%
12 | CN(C(=O)c1cnc(SC2CCOCC2)n1C)c1cccnc1 [I-A-52] | 0.90 | 1.25 | 100 |  | % efficacy ([3]; MYZUPE, 100 g ai/ha, 5 dat): 100%
13 | CC(C)CCSc1ncc(C(=O)N(C)c2cccnc2)n1C [I-A-53] | 2.68 | 2.76 | 100 |  | % efficacy ([3]; MYZUPE, 100 g ai/ha, 5 dat): 100%
14 | CN(C(=O)c1cnc(SC2COC2)n1C)c1cccnc1 [I-A-54] | 0.63 | 0.98 | 100 |  | % efficacy ([3]; MYZUPE, 100 g ai/ha, 5 dat): 90%
15 | COc1ccc(Sc2ncc(C(=O)N(C)c3cccnc3)n2C)cc1 [I-A-58] | 1.62 | 1.79 | 90 | 70 | 
16 | CN(C)c1ccc(Sc2ncc(C(=O)N(C)c3cccnc3)n2C)cc1 [I-A-59] | 1.55 | 2.11 | 90 | 90 | 
17 | CN(C(=O)c1cnc(Sc2cc(Cl)ccc2Cl)n1C)c1cccnc1 [I-A-60] | 2.55 | 2.58 | 90 | 70 | 
18 | CN(C(=O)c1cnc(Sc2ccc(F)cc2)n1C)c1cccnc1 [I-A-62] |  |  |  |  | chromatographic logP [1, 5]: 1.66; chromatographic logP [1, 6]: 1.87; pest or weed control at 500 g/ha [2, 4]: 90%; pest or weed control at 100 g/ha ([3]; MYZUPE, 100 g ai/ha, 6 dat): 70%
19 | CN(C(=O)c1cnc(Sc2ccc(Cl)c(C(F)(F)F)c2)n1C)c1cccnc1 [I-A-64] | 2.63 | 2.71 | 90 | 70 | 
20 | CN(C(=O)c1cnc(Sc2ccccn2)n1C)c1cccnc1 [I-A-65] | 1.01 | 1.18 | 100 | 100 | 
21 | CN(C(=O)c1cnc(Sc2ccccc2S(=O)(=O)N(C)C)n1C)c1cccnc1 [I-A-69] | 1.56 | 1.63 | 100 | 70 | 
22 | CN(C(=O)c1cnc(Sc2ccc(Cl)nc2)n1C)c1cccnc1 [I-A-70] | 1.45 | 1.52 | 100 | 70 | 
23 | CN(C(=O)c1cnc(Sc2ccccc2F)n1C)c1cccnc1 [I-A-71] | 1.68 | 1.78 | 100 | 70 | 
24 | CN(C(=O)c1cnc(S(=O)(=O)c2ccc(F)cc2)n1C)c1cccnc1 [I-A-82] | 1.53 | 1.62 | 90 | 90 | 

Now from value to compound, other results behind:

Row | logP[a] ([1]; method [a]) | logP[b] ([1]; method [b]) | Structure (SMILES) | efficacy (aphids killed) [2, 4] [%] | % efficacy ([3]; MYZUPE, 100 g ai/ha, 6 dat) [%] | other results
25 | 1.22 | 1.27 | CN(C(=O)c1cnc([S+]([O-])c2ccc(F)cc2)n1C)c1cccnc1 (centres unmarked) [I-A-84] | 90 | 70 | 
26 | 0.59 | 0.80 | CN(C(=O)c1cnc([S+]([O-])c2ccccn2)n1C)c1cccnc1 (centres unmarked) [I-A-86] | 90 | 90 | 
27 | 1.04 | 1.20 | CN(C(=O)c1cnc([S+]([O-])c2ccccc2)n1C)c1cccnc1 (centres unmarked) [I-A-87] | 90 | 90 | 
28 | 1.18 | 1.39 | CN(C(=O)c1cnc(Sc2ccc(F)cn2)n1C)c1cccnc1 [I-A-94] | 100 | 90 | 
29 | 1.41 | 1.39 | CN(C(=O)c1cnc([S+]([O-])c2cccc(C(F)(F)F)c2)n1C)c1ccc[n+]([O-])c1 (centres unmarked) [I-A-95] | 100 |  | % efficacy ([3]; MYZUPE, 100 g ai/ha, 5 dat): 90%
30 | 1.74 | 1.80 | CN(C(=O)c1cnc([S+]([O-])c2cccc(C(F)(F)F)c2)n1C)c1cccnc1 (centres unmarked) [I-A-96] | 100 |  | % efficacy ([3]; MYZUPE, 100 g ai/ha, 5 dat): 90%
31 | 0.45 | 0.48 | CN(C(=O)c1cnc([S+]([O-])c2ncccn2)n1C)c1cccnc1 (centres unmarked) [I-A-97] | 90 | 70 | 
32 | 1.58 |  | CN(C(=O)c1cnc(Sc2nccc(C(F)(F)F)n2)n1C)c1cccnc1 [I-A-100] | 90 | 90 | 
33 | 1.00 |  | Cc1ccnc(Sc2ncc(C(=O)N(C)c3cccnc3)n2C)n1 [I-A-101] | 100 | 90 | 
34 | 1.61 | 1.79 | COc1cc(OC)nc(Sc2ncc(C(=O)N(C)c3cccnc3)n2C)n1 [I-A-102] | 100 | 90 | 
35 | 0.97 |  | Cc1cnc(Sc2ncc(C(=O)N(C)c3cccnc3)n2C)nc1 [I-A-104] | 100 | 90 | 
36 | 1.20 |  | COc1ccnc(Sc2ncc(C(=O)N(C)c3cccnc3)n2C)n1 [I-A-106] | 100 | 90 | 
37 | 1.28 | 1.43 | Cc1cccc(Sc2ncc(C(=O)N(C)c3cccnc3)n2C)n1 [I-A-108] | 100 | 70 | 
38 | 0.56 | 0.85 | CN(C(=O)c1cnc(SCc2ncccn2)n1C)c1cccnc1 [I-A-112] | 100 | 90 | 
39 | 0.66 | 0.93 | CN(C(=O)c1cnc(SCc2cnccn2)n1C)c1cccnc1 [I-A-113] | 90 | 90 | 
40 | 0.16 | 1.11 | CN(C(=O)c1cnc(SCc2ccncc2)n1C)c1cccnc1 [I-A-116] | 100 | 90 | 
41 | 0.63 | 1.16 | CN(C(=O)c1cnc(SCc2ccccn2)n1C)c1cccnc1 [I-A-117] | 90 | 90 | 
42 | 1.37 | 1.58 | CN(C(=O)c1cnc(SCc2ccc(Cl)nc2)n1C)c1cccnc1 [I-A-122] | 100 | 90 | 
